Literature values as cited in patent publication US20220362410A1, “PREFERRED ANTERIOR CAPSULOTOMY LOCATION PROVIDED BY TRYPAN BLUE OPTHALMIC SOLUTION” (Excel-Lens, Inc., priority 2018, published 2022).

Tested on: cell toxicity
Settings: concentrations above the range 0.2 to 0.45%

In the case of Cc1cc(-c2ccc(/N=N/c3c(S(=O)(=O)O)cc4cc(S(=O)(=O)O)cc(N)c4c3O)c(C)c2)ccc1/N=N/c1c(S(=O)(=O)O)cc2cc(S(=O)(=O)O)cc(N)c2c1O [Trypan Blue], the cell toxicity is given as “cell toxicity was noted”.
